Source: publication PMC11356900, “Synthesis, Structural Properties and Biological Activities of Novel Hydrazones of 2-, 3-, 4-Iodobenzoic Acid” (Molecules, 2024)

Legend:
Assay in all cases: MTT cytotoxicity assay
Type in all cases: cell-based
T47D cell line = system: T47D cell line
Procedure: (§1) Among all the newly synthesized compounds, four compounds designated as: 14, 20, 21 and 27 were selected for further testing of their cytotoxic properties at the doses of 10, 25, 50, 75 and 100 µM. The cytotoxic properties of the above compounds were tested on the cancer cell lines, i.e., A549 (ECACC 86012804) (non-small-cell lung cancer), T47D (ECACC 85102201) (breast cancer), HeLa (ATCC® CCL-2™) (cervical cancer) and normal line L929 (NCTC clone 929, ATCC® CCL-1™) (mouse fibroblasts) using the MTT test for 24- and 48 h cultures.
(§2) A549 (ECACC 86012804) (non-small-cell lung cancer) and T47D (ECACC 85102201) (breast cancer) were obtained from ECACC and propagated in Dulbecco’s Minimal Essential Medium, supplemented with 2 mM of glutamine, antibiotics ([…] streptomycin, 1% of 100 U/L penicillin) and 10% Fetal Bovine Serum. HeLa (ATCC® CCL-2™) (cervical cancer) and L929 (NCTC clone 929, ATCC® CCL-1™) (mouse fibroblasts) cell lines were obtained from ATCC and propagated in the Eagle Minimal Essential Medium supplemented with antibiotics ([…] streptomycin, 1% of 100 U/L penicillin) and with 10% and 5% FBS, respectively. The cell line was routinely grown in 75 cm^2 tissue culture flasks and kept in an incubator (humidified atmosphere of 5% CO2 at 37 °C). All examined cell lines were tested against mycoplasma contamination with microbiological assays.
(§3) The cell viability of tested compounds (14, 20, 21 and 27) was assessed by the MTT assay. In brief, the exponentially growing cells were plated in 100 μL/well in 96-well plates. After 24 h culturing, the cells were treated with different concentrations of compounds (range 10–100 μM). After 24 and 48 h of incubation, 10 μL of 5 mg/mL MTT was added to each well and the plates were incubated at 37 °C for additional 4 h. The medium was subsequently removed, the purple-colored precipitates of formazan were dissolved in 100 μL of DMSO. The color absorbance was recorded at 570 nm using a BioTek model EPOCH ELISA plate reader. All experiments were performed in triplicate. The absorbance values were in the range of linearity of the Lambert–Beer law.

HeLa cell line = settings: for cytotoxicity: 24 h culture
Procedure: as §1, §2, §3

A549 cell line = system: A549 cell line
Procedure: as §1, §2, §3

Structure (SMILES): O=C(N/N=C/c1cc(Cl)cc(I)c1O)c1ccc(I)cc1 [Compound 27, N-[(5-chloro-2-hydroxy-3-iodophenyl)methylidene]-4-iodobenzohydrazide]
- cell proliferation (T47D cell line; 24h, 10 µM, Repeat No 1): 96%
- cell proliferation (T47D cell line; 24h, 10 µM, Repeat No 2): 91%
- cell proliferation (T47D cell line; 24h, 25 µM, Repeat No 1): 91%
- cell proliferation (T47D cell line; 24h, 25 µM, Repeat No 2): 82%
- cell proliferation (T47D cell line; 24h, 50 µM, Repeat No 1): 83%
- cell proliferation (T47D cell line; 24h, 50 µM, Repeat No 2): 79%
- cell proliferation (T47D cell line; 24h, 75 µM, Repeat No 1): 84%
- cell proliferation (T47D cell line; 24h, 75 µM, Repeat No 2): 87%
- cell proliferation (T47D cell line; 24h, 100 µM, Repeat No 1): 86%
- cell proliferation (T47D cell line; 24h, 100 µM, Repeat No 2): 91%
- cell proliferation (T47D cell line; 48h, 10 µM, Repeat No 1): 82%
- cell proliferation (T47D cell line; 48h, 10 µM, Repeat No 2): 75%
- cell proliferation (T47D cell line; 48h, 25 µM, Repeat No 1): 88%
- cell proliferation (T47D cell line; 48h, 25 µM, Repeat No 2): 84%
- cell proliferation (T47D cell line; 48h, 50 µM, Repeat No 1): 81%
- cell proliferation (T47D cell line; 48h, 50 µM, Repeat No 2): 80%
- cell proliferation (T47D cell line; 48h, 75 µM, Repeat No 1): 79%
- cell proliferation (T47D cell line; 48h, 75 µM, Repeat No 2): 72%
- cell proliferation (T47D cell line; 48h, 100 µM, Repeat No 1): 83%
- cell proliferation (T47D cell line; 48h, 100 µM, Repeat No 2): 81%
- cell proliferation (HeLa cell line; 24h, 10 µM, Repeat No 1): 74%
- cell proliferation (HeLa cell line; 24h, 10 µM, Repeat No 2): 83%
- cell proliferation (HeLa cell line; 24h, 25 µM, Repeat No 1): 69%
- cell proliferation (HeLa cell line; 24h, 25 µM, Repeat No 2): 73%
- cell proliferation (HeLa cell line; 24h, 50 µM, Repeat No 1): 61%
- cell proliferation (HeLa cell line; 24h, 50 µM, Repeat No 2): 67%
- cell proliferation (HeLa cell line; 24h, 75 µM, Repeat No 1): 72%
- cell proliferation (HeLa cell line; 24h, 75 µM, Repeat No 2): 69%
- cell proliferation (HeLa cell line; 24h, 100 µM, Repeat No 1): 63%
- cell proliferation (HeLa cell line; 24h, 100 µM, Repeat No 2): 59%
- cytotoxicity (HeLa cell line; dose of 50 µM): 37%
- cytotoxicity (HeLa cell line; dose of 100 µM): 41%
- cell proliferation (HeLa cell line; 48h, 10 µM, Repeat No 1): 77%
- cell proliferation (HeLa cell line; 48h, 10 µM, Repeat No 2): 82%
- cell proliferation (HeLa cell line; 48h, 25 µM, Repeat No 1): 82%
- cell proliferation (HeLa cell line; 48h, 25 µM, Repeat No 2): 71%
- cell proliferation (HeLa cell line; 48h, 50 µM, Repeat No 1): 61%
- cell proliferation (HeLa cell line; 48h, 50 µM, Repeat No 2): 49%
- cell proliferation (HeLa cell line; 48h, 75 µM, Repeat No 1): 51%
- cell proliferation (HeLa cell line; 48h, 75 µM, Repeat No 2): 43%
- cell proliferation (HeLa cell line; 48h, 100 µM, Repeat No 1): 63%
- cell proliferation (HeLa cell line; 48h, 100 µM, Repeat No 2): 57%
- cell proliferation (A549 cell line; A549, 24h, 10 µM, Repeat No 1): 95%
- cell proliferation (A549 cell line; A549, 24h, 10 µM, Repeat No 2): 92%
- cell proliferation (A549 cell line; A549, 24h, 25 µM, Repeat No 1): 97%
- cell proliferation (A549 cell line; A549, 24h, 25 µM, Repeat No 2): 89%
- cell proliferation (A549 cell line; A549, 24h, 50 µM, Repeat No 1): 94%
- cell proliferation (A549 cell line; A549, 24h, 50 µM, Repeat No 2): 87%
- cell proliferation (A549 cell line; A549, 24h, 75 µM, Repeat No 1): 87%
- cell proliferation (A549 cell line; A549, 24h, 75 µM, Repeat No 2): 92%
- cell proliferation (A549 cell line; A549, 24h, 100 µM, Repeat No 1): 109%
- cell proliferation (A549 cell line; A549, 24h, 100 µM, Repeat No 2): 103%
- effect on proliferation in words (A549 cell line; A549, 24 h culture, dose of 100 µM): increase in the proliferation of cancer cells
- cell proliferation (A549 cell line; A549, 48h, 10 µM, Repeat No 1): 84%
- cell proliferation (A549 cell line; A549, 48h, 10 µM, Repeat No 2): 87%
- cell proliferation (A549 cell line; A549, 48h, 25 µM, Repeat No 1): 87%
- cell proliferation (A549 cell line; A549, 48h, 25 µM, Repeat No 2): 82%
- cell proliferation (A549 cell line; A549, 48h, 50 µM, Repeat No 1): 88%
- cell proliferation (A549 cell line; A549, 48h, 50 µM, Repeat No 2): 89%
- cell proliferation (A549 cell line; A549, 48h, 75 µM, Repeat No 1): 91%
- cell proliferation (A549 cell line; A549, 48h, 75 µM, Repeat No 2): 87%
- cell proliferation (A549 cell line; A549, 48h, 100 µM, Repeat No 1): 98%
- cell proliferation (A549 cell line; A549, 48h, 100 µM, Repeat No 2): 95%
